Read-outs that look alike come from different tables or passages of the source. Positions of bridges follow the written chain, without caps; N, C: chain ends. Non-standard residues stand in square brackets, D forms with d. Residues, ends and D or L forms follow the SMILES beside them. *: point of attachment. Octanoyl = CCCCCCCC(=O)*; Dab = NCC[C@H](N)C(=O)O
Columns and labels:
[1] = test system: E. coli IH3080; test: Agar well growth inhibition on LB plates with or without rifampin; type: cell-based, Escherichia coli; settings: well containing 4 micrograms of the compound; for Activity w. rifampin: growth inhibition around a well: LB plate containing rifampin 0.1 micrograms/ml; for Direct activity: growth inhibition around a well: LB plates
[2] = test system: bacteria; settings: Sakura et al. (2004); cited from earlier work
[3] = test system: E. coli (ATCC25922 and IH3080), K. pneumoniae ATCC13883, and E. cloacae ATCC23355; type: cell-based; settings: all four strains; NAB741 alone
Protocol: MICs were determined by using E-strips (Biodisk Ltd., Solna, Sweden) according to the manufacturer's instructions.

[4] = Basic pharmacokinetics after i.v. bolus in rats; type: in vivo, rat (Sprague-Dawley); settings: rat
Protocol: Blood samples were centrifuged to obtain plasma. […] Plasma and urine samples were stored at −80° C. […] NAB 741 was eluted at 6.65±0.05 min and NAB739 was eluted at 9.45±0.05 min.

[5] = rat, in vivo; cited from earlier work
[6] = test system: Ac. baumannii ATCC19606; test: E-test MIC of antibacterial agents on Mueller-Hinton agar with or without NAB741; type: cell-based; settings: Acinetobacter baumannii; A. baumannii ATCC19606; meropenem alone; read-out: MIC of meropenem at NAB 741 concn 0 μg/ml
Excerpt: (§1) Five of the strains originated from ATCC. Acinetobacter baumannii F264 was purchased from Mobidiag Ltd., Helsinki, Finland. The source of E. coli IH3080 has been given in Example 2.
(§2) Sensitization factor was defined as in Example 4. NAB7061 sensitized the meropenem-resistant strain F264 to meropemen by a factor >4.

[7] = test system: Ac. baumannii F264; test: as above; type: cell-based; settings: Acinetobacter baumannii; A. baumannii F264 (meropenem-resistant); meropenem alone; read-out: MIC of meropenem at NAB 741 concn 0 μg/ml
Excerpt: as §1, §2

Compound	Activity w. rifampin: growth inhibition around a well [1] [square millimeters]	Direct activity: growth inhibition around a well [1] [square millimeters]	other results
octanoyl polymyxin B heptapeptide [Octanoyl PMBH]	0	0	Concentration that inhibits the growth of bacteria [2]: 128 µg/mL
Polymyxin B nonapeptide [Polymyxin B nonpeptide]	20	0	–
CC(=O)N[C@H](C(=O)N[C@H](CO)C(=O)N[C@H]1CCNC(=O)[C@H]([C@@H](C)O)NC(=O)[C@H](CCN)NC(=O)[C@H](CCN)NC(=O)[C@H](CC(C)C)NC(=O)[C@@H](Cc2ccccc2)NC(=O)[C@H](CCN)NC1=O)[C@@H](C)O [NAB 741, acetyl-Thr-DSer-cy[Dab-Dab-DPhe-Leu-Dab-Dab-Thr-]] (Ac-T[dS][Dab][Dab][dF]L[Dab][Dab]T; lactam 3-C (inferred))	–	–	MIC of NAB741 [3]: > 16 mg/L; urinary recovery ([4]; in vivo, iv, 1 mg/kg): 50.9±13.6 % of dose in 24 h; volume of distribution ([4]; in vivo, iv, 1 mg/kg): 0.243 ± 0.024 L/kg
Deacylpolymyxin B	79	57	–
Deacylcolistin	87	79	–
Colistin (polymyxin E)	–	–	clearance [5]: 0.312 ± 0.024 L/h/kg; half-life [5]: 1.24 ± 0.22 h; renal clearance [5]: 0.0006 ± 0.00048 L/h/kg; volume of distribution [5]: 0.496 ± 0.06 L/kg
CCCCCCCC(=O)N[C@H](C(=O)N[C@H](CO)C(=O)N[C@H]1CCNC(=O)[C@H]([C@@H](C)O)NC(=O)[C@H](CCN)NC(=O)[C@H](CCN)NC(=O)[C@H](CC(C)C)NC(=O)[C@@H](Cc2ccccc2)NC(=O)[C@H](CCN)NC1=O)[C@@H](C)O [NAB 739] (Octanoyl-T[dS][Dab][Dab][dF]L[Dab][Dab]T; lactam 3-C)	–	–	clearance ([4]; acetate 1 mg/kg i.v. bolus): 0.158 ± 0.0324 L/h/kg; renal clearance ([4]; acetate 1 mg/kg i.v. bolus): 0.0318 ± 0.018 L/h/kg; volume of distribution ([4]; acetate 1 mg/kg i.v. bolus): 0.222 ± 0.0205 L/kg; half-life ([4]; acetate 1 mg/kg i.v. bolus, plasma): 1.15 ± 0.365 h
acetyl-Thr-DAsn-cy[Dab-Dab-DPhe-Leu-Dab-Dab-Thr-] [NAB 745]	50	0	–
Polymyxin B	95	79	–
C[C@@H](O)[C@H]1C(=O)N2C(C(=O)O)=C(S[C@@H]3CN[C@H](C(=O)N(C)C)C3)[C@H](C)[C@H]12 [meropenem]	–	–	MIC [6]: 0.75 mg/L; MIC [7]: > 32 mg/L
Polymyxin B heptapeptide	0	0	–

From patent publication US9090669B2, “Short fatty acid tail polymyxin derivatives and uses thereof” (priority 2008, dated 2015)
